Positions of bridges follow the written chain, without caps; N, C: chain ends. Non-standard residues stand in square brackets, D forms with d. Residues, ends and D or L forms follow the SMILES beside them. Phe(4-COOH) = N[C@@H](Cc1ccc(C(=O)O)cc1)C(=O)O; Trp(7-aza) = N[C@@H](Cc1c[nH]c2ncccc12)C(=O)O; 3Pal(6-NH2) = Nc1ccc(C[C@H](N)C(=O)O)cn1; Gly(N(CH2)3COOH) = O=C(O)CCCNCC(=O)O; NMeF = CN[C@@H](Cc1ccccc1)C(=O)O; 3Pal = N[C@@H](Cc1cccnc1)C(=O)O; 4Pal = N[C@@H](Cc1ccncc1)C(=O)O; NMeA = CN[C@@H](C)C(=O)O; Sar = CNCC(=O)O
Tests used:
Myostatin = target: T1, Myostatin (Homo sapiens, UniProt O14793); assay: HepG2 reporter gene assay, Evaluation Procedure (2): 2-concentrations assay, myostatin inhibition; assay type: cell-based; conditions: Myostatin 10 ng/mL, HepG2; for inhibition at 0.03 µM: peptide 30nM, read-out: Myostatin Inhibition 30nM; for inhibition at 0.1 µM: peptide 100nM, read-out: Myostatin Inhibition 100nM
T1 construct: active myostatin (also called mature myostatin) is a homodimer consisting of two C-terminal growth factor domains; purchased R&D systems 788-G8/CF
T1 sequence (O14793 267-375): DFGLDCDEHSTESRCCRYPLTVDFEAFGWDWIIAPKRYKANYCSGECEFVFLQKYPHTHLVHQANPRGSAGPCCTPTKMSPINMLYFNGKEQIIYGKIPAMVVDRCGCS
Method in brief: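 Myostatin inhibition was measured in a luciferase reporter assay using HepG2 cells transfected with a pGL3 vector containing 12 CAGA repeats upstream of luciferase. After 20 to 24 hours with 10 ng/mL myostatin, cells received One-Glo:PBS (1:1) at 100 µL/well, were shaken for 5 min, and 20 µL/well was moved to 384-well plates and read on an Envision 2104.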

GDF-11 = target: T2, GDF-11 (Homo sapiens, UniProt O95390); assay: HepG2 reporter gene assay, Evaluation Procedure (2): 2-concentrations assay, GDF-11 inhibition; assay type: cell-based; conditions: GDF-11 10 ng/mL; for inhibition at 0.03 µM: HepG2, peptide 30nM, read-out: GDF11 Inhibition 30nM; for inhibition at 0.1 µM: HepG2, peptide 100nM, read-out: GDF11 Inhibition 100nM
T2 construct: purchased R&D systems 1958-GD-G8/CF
T2 sequence (O95390 299-407): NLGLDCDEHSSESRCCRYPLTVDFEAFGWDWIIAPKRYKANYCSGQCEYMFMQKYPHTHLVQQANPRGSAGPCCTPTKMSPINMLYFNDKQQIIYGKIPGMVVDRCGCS
Method in brief: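 HepG2 cells carrying the transfected pGL3(CAGA)12-luc reporter, a pGL3 vector with luciferase placed downstream of 12 CAGA repeats, were stimulated with GDF-11 at a final 10 ng/mL together with test peptide. Blank wells received no GDF-11 and no peptide. Plates were incubated 20 to 24 hours at 37°C with 5% CO2. Luminescence from One-Glo substrate was read to calculate percent inhibition.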

Row | SMILES | inhibition at 0.03 µM (Myostatin) | inhibition at 0.1 µM (Myostatin) | inhibition at 0.03 µM (GDF-11) | inhibition at 0.1 µM (GDF-11)
1 | CC[C@H](C)[C@@H]1NC(=O)[C@H](Cc2ccccc2)N(C)C(=O)[C@H](Cc2ccc(N)nc2)NC(=O)[C@H](Cc2c[nH]c3ccccc23)NC(=O)[C@H](C)NC(=O)CN(CCCC(=O)O)C(=O)CSC[C@H](C(N)=O)NC(=O)[C@H](Cc2ccccc2)N(C)C(=O)[C@H](C)N(C)C(=O)[C@H](CC(C)C)NC(=O)[C@H](Cc2ccccc2)N(C)C(=O)[C@H](CCCNC(=N)N)NC(=O)[C@H](Cc2cccnc2)NC(=O)[C@H](Cc2ccccc2)NC(=O)CN(C)C1=O [Myostatin_99_Variant_26] ({CH2CO}-[Gly(N(CH2)3COOH)]AW[3Pal(6-NH2)][NMeF]I[Sar]F[3Pal]R[NMeF]L[NMeA][NMeF][dC]-NH2; thioether N-15) | 26% | 50% | 0% | 0%
2 | CC[C@H](C)[C@@H]1NC(=O)[C@H](Cc2ccccc2)N(C)C(=O)[C@H](Cc2ccc(O)cc2)NC(=O)[C@H](Cc2c[nH]c3ccccc23)NC(=O)[C@H](C)NC(=O)CN(CCCC(=O)O)C(=O)CSC[C@H](C(=O)NCC(=O)N[C@H](CCC(=O)O)C(=O)NCC(=O)N[C@H](CCCCN)C(=O)O)NC(=O)[C@H](Cc2ccccc2)N(C)C(=O)[C@H](C)N(C)C(=O)[C@H](CC(C)C)NC(=O)[C@H](Cc2ccccc2)N(C)C(=O)[C@H](CCCNC(=N)N)NC(=O)[C@H](Cc2ccc(C(=O)O)cc2)NC(=O)[C@H](Cc2ccc(O)cc2)NC(=O)CN(C)C1=O [Myostatin_99_v27] ({CH2CO}-[Gly(N(CH2)3COOH)]AWY[NMeF]I[Sar]Y[Phe(4-COOH)]R[NMeF]L[NMeA][NMeF][dC]G[dE]G[dK]-OH; thioether N-15) | 24% | 54% | 0% | 0%
3 | CC[C@H](C)[C@@H]1NC(=O)[C@H](Cc2ccccc2)N(C)C(=O)[C@H](Cc2ccc(O)cc2)NC(=O)[C@H](Cc2c[nH]c3ncccc23)NC(=O)[C@H](C)NC(=O)[C@H](C)NC(=O)CSC[C@H](C(=O)NCC(=O)N[C@H](CCC(=O)O)C(=O)NCC(=O)N[C@H](CCCCN)C(=O)O)NC(=O)[C@H](Cc2ccccc2)N(C)C(=O)[C@H](C)N(C)C(=O)[C@H](CC(C)C)NC(=O)[C@H](Cc2ccccc2)N(C)C(=O)[C@H](CCCNC(=N)N)NC(=O)[C@H](Cc2ccc(C(=O)O)cc2)NC(=O)[C@H](Cc2ccccc2)NC(=O)CN(C)C1=O [Myostatin_99_v28] ({CH2CO}-AA[Trp(7-aza)]Y[NMeF]I[Sar]F[Phe(4-COOH)]R[NMeF]L[NMeA][NMeF][dC]G[dE]G[dK]-OH; thioether N-15) | 69% | 92% | 0% | 20%
4 | CC[C@H](C)[C@@H]1NC(=O)[C@H](Cc2ccccc2)N(C)C(=O)[C@H](Cc2ccc(O)cc2)NC(=O)[C@H](Cc2c[nH]c3ncccc23)NC(=O)[C@H](C)NC(=O)[C@H](C)NC(=O)CSC[C@H](C(=O)NCC(=O)N[C@H](CCC(=O)O)C(=O)NCC(=O)N[C@H](CCCCN)C(=O)O)NC(=O)[C@H](Cc2ccccc2)N(C)C(=O)[C@H](C)N(C)C(=O)[C@H](CC(C)C)NC(=O)[C@H](Cc2ccccc2)N(C)C(=O)[C@H](CCCNC(=N)N)NC(=O)[C@H](Cc2ccc(C(=O)O)cc2)NC(=O)[C@H](Cc2ccncc2)NC(=O)CN(C)C1=O [Myostatin_99_v29] ({CH2CO}-AA[Trp(7-aza)]Y[NMeF]I[Sar][4Pal][Phe(4-COOH)]R[NMeF]L[NMeA][NMeF][dC]G[dE]G[dK]-OH; thioether N-15) | 57% | 81% | 0% | 0%

More lines, now with the values ahead:

Row | inhibition at 0.03 µM (Myostatin) | inhibition at 0.1 µM (Myostatin) | inhibition at 0.03 µM (GDF-11) | inhibition at 0.1 µM (GDF-11) | SMILES
5 | 31% | 60% | 0% | 0% | CC[C@H](C)[C@@H]1NC(=O)[C@H](Cc2ccccc2)N(C)C(=O)[C@H](Cc2ccc(O)cc2)NC(=O)[C@H](Cc2c[nH]c3ncccc23)NC(=O)[C@H](C)NC(=O)CN(CCCC(=O)O)C(=O)CSC[C@H](C(=O)NCC(=O)N[C@H](CCC(=O)O)C(=O)NCC(=O)N[C@H](CCCCN)C(=O)O)NC(=O)[C@H](Cc2ccccc2)N(C)C(=O)[C@H](C)N(C)C(=O)[C@H](CC(C)C)NC(=O)[C@H](Cc2ccccc2)N(C)C(=O)[C@H](CCCNC(=N)N)NC(=O)[C@H](Cc2ccc(C(=O)O)cc2)NC(=O)[C@H](Cc2ccccc2)NC(=O)CN(C)C1=O [Myostatin_99_v30] ({CH2CO}-[Gly(N(CH2)3COOH)]A[Trp(7-aza)]Y[NMeF]I[Sar]F[Phe(4-COOH)]R[NMeF]L[NMeA][NMeF][dC]G[dE]G[dK]-OH; thioether N-15)
6 | 65% | 89% | 0% | 32% | CC[C@H](C)[C@@H]1NC(=O)[C@H](Cc2ccccc2)N(C)C(=O)[C@H](Cc2ccc(O)cc2)NC(=O)[C@H](Cc2c[nH]c3ccccc23)NC(=O)[C@H](C)NC(=O)CN(CCCC(=O)O)C(=O)CSC[C@H](C(=O)N[C@H](CO)C(=O)N[C@H](CO)C(=O)N[C@H](CO)C(=O)N[C@H](CCCCN)C(=O)O)NC(=O)[C@H](Cc2ccccc2)N(C)C(=O)[C@H](C)N(C)C(=O)[C@H](CC(C)C)NC(=O)[C@H](Cc2ccccc2)N(C)C(=O)[C@H](CCCNC(=N)N)NC(=O)[C@H](Cc2ccc(C(=O)O)cc2)NC(=O)[C@H](Cc2ccc(O)cc2)NC(=O)CN(C)C1=O [Myostatin_99_v34] ({CH2CO}-[Gly(N(CH2)3COOH)]AWY[NMeF]I[Sar]Y[Phe(4-COOH)]R[NMeF]L[NMeA][NMeF][dC][dS][dS][dS][dK]-OH; thioether N-15)
7 | 95% | 100% | 13% | 36% | CC[C@H](C)[C@@H]1NC(=O)[C@H](Cc2ccccc2)N(C)C(=O)[C@H](Cc2ccc(O)cc2)NC(=O)[C@H](Cc2c[nH]c3ncccc23)NC(=O)[C@H](C)NC(=O)[C@H](C)NC(=O)CSC[C@H](C(=O)N[C@H](CO)C(=O)N[C@H](CO)C(=O)N[C@H](CO)C(=O)N[C@H](CCCCN)C(=O)O)NC(=O)[C@H](Cc2ccccc2)N(C)C(=O)[C@H](C)N(C)C(=O)[C@H](CC(C)C)NC(=O)[C@H](Cc2ccccc2)N(C)C(=O)[C@H](CCCNC(=N)N)NC(=O)[C@H](Cc2ccc(C(=O)O)cc2)NC(=O)[C@H](Cc2ccccc2)NC(=O)CN(C)C1=O [Myostatin_99_v35] ({CH2CO}-AA[Trp(7-aza)]Y[NMeF]I[Sar]F[Phe(4-COOH)]R[NMeF]L[NMeA][NMeF][dC][dS][dS][dS][dK]-OH; thioether N-15)
8 | 92% | 98% | 2% | 18% | CC[C@H](C)[C@@H]1NC(=O)[C@H](Cc2ccccc2)N(C)C(=O)[C@H](Cc2ccc(O)cc2)NC(=O)[C@H](Cc2c[nH]c3ncccc23)NC(=O)[C@H](C)NC(=O)[C@H](C)NC(=O)CSC[C@H](C(=O)N[C@H](CO)C(=O)N[C@H](CO)C(=O)N[C@H](CO)C(=O)N[C@H](CCCCN)C(=O)O)NC(=O)[C@H](Cc2ccccc2)N(C)C(=O)[C@H](C)N(C)C(=O)[C@H](CC(C)C)NC(=O)[C@H](Cc2ccccc2)N(C)C(=O)[C@H](CCCNC(=N)N)NC(=O)[C@H](Cc2ccc(C(=O)O)cc2)NC(=O)[C@H](Cc2ccncc2)NC(=O)CN(C)C1=O [Myostatin_99_v36] ({CH2CO}-AA[Trp(7-aza)]Y[NMeF]I[Sar][4Pal][Phe(4-COOH)]R[NMeF]L[NMeA][NMeF][dC][dS][dS][dS][dK]-OH; thioether N-15)

Reference: patent publication EP4786487A1, “PEPTIDE” (Peptidream Inc, priority 2023, dated 2025)
